{"source": "patent CN116444420A", "about": "“β-catenin/BCL9蛋白蛋白相互作用的小分子抑制剂及其应用” (Shanghai Pharmaceutical Industry Research Institute Co ltd, priority 2021, dated 2023)", "key": {"[1]": {"biological_target": "T1, hERG potassium channel [hERG钾离子通道] (Homo sapiens, UniProt Q12809)", "T1 construct": "expressed in transfected cells; host or cells: HEK293 (stably transfected)", "T1 sequence (Q12809 whole entry)": "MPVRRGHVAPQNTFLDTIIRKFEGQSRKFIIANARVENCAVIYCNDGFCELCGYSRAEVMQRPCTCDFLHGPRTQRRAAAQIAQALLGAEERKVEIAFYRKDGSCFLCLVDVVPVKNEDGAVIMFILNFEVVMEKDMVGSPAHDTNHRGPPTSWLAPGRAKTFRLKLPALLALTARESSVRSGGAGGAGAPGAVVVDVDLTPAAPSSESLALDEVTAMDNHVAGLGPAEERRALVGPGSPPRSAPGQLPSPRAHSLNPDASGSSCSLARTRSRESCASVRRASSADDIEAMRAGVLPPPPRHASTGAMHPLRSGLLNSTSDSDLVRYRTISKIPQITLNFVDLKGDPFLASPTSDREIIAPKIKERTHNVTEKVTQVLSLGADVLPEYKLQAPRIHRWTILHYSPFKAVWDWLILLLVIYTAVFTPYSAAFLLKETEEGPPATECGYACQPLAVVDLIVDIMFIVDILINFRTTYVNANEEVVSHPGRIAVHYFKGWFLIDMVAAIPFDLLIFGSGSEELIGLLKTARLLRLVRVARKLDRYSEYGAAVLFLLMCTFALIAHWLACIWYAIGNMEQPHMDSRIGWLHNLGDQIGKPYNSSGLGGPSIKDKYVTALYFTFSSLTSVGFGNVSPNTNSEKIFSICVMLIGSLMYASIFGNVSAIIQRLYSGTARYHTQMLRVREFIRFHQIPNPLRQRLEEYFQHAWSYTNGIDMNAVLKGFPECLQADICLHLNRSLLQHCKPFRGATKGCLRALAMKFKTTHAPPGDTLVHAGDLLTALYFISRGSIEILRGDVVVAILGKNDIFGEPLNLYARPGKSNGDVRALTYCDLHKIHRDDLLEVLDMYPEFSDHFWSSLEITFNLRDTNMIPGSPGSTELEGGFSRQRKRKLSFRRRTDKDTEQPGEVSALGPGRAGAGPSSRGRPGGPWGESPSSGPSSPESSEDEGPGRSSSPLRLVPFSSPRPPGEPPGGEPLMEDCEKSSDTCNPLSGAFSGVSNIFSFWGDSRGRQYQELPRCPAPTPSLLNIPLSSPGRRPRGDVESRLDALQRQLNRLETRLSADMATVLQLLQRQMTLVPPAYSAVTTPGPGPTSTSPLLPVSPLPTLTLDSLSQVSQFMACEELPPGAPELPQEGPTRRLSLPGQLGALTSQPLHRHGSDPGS", "assay": "hERG potassium channel, whole-cell patch clamp (Example 73)", "type": "cell-based"}, "[2]": {"assay": "Liver microsome metabolic stability (Example 75)", "type": "in vitro ADME", "conditions": "0.5 mg/mL liver microsomal protein, 1μM, NADPH, 37℃"}, "[3]": {"biological_target": "T2, β-catenin/BCL9 protein-protein [β-catenin/BCL9蛋白-蛋白] (Homo sapiens, UniProt P35222)", "T2 construct": "β-catenin(1-781)", "T2 sequence (P35222 1-781)": "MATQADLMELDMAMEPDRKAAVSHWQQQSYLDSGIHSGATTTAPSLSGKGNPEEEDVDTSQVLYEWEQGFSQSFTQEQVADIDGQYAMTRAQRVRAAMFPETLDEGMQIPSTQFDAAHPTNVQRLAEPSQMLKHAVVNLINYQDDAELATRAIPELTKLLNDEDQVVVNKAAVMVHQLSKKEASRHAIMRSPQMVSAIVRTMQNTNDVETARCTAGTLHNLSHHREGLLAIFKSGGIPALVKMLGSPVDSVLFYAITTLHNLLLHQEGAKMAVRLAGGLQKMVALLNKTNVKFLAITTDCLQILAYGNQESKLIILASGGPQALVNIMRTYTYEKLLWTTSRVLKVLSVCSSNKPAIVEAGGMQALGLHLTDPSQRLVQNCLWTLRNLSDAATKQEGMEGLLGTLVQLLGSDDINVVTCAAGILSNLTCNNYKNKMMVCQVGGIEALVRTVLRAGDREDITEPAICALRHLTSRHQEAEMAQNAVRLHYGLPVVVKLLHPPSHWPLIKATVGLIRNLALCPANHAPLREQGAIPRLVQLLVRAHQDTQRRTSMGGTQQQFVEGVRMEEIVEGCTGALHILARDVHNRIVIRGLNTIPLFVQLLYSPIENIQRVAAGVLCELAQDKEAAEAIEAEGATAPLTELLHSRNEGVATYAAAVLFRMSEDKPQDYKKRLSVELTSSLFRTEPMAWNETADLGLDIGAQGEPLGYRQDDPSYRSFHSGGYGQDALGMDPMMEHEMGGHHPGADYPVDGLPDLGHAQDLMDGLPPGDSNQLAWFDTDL", "assay": "β-catenin/BCL9 protein-protein affinity, fluorescence polarisation (Example 71)", "type": "binding", "conditions": "better than compound c"}, "[4]": {"tested_on": "HEK293 human normal cells [HEK293人正常细胞]", "conditions": "10μM"}, "[5]": {"tested_on": "HCT-116, CT-26, SW480, A549, RKO cells [人结肠癌细胞HCT-116、人结肠癌细胞CT-26、人结肠癌细胞SW480、人肺癌细胞A549、人结肠腺癌细胞RKO]", "assay": "CCK-8 antiproliferative activity of II-39, cancer cell panel (Example 72, part 2)", "type": "cell-based, human", "conditions": "10μM"}, "[6]": {"tested_on": "CT26 colon cancer cells in BALB/c mice [CT26结肠癌细胞]", "assay": "In vivo experiment 2: CT26 colon cancer mouse model, II-39 (Example 76)"}, "CT-26 cells": {"tested_on": "CT-26 cells", "assay": "CCK-8 antiproliferative activity of II-39, CT-26", "type": "cell-based, human", "conditions": "10μM"}, "[7]": {"tested_on": "CT26 colon cancer cells in BALB/c mice [CT26结肠癌细胞]", "assay": "In vivo experiment 1: CT26 colon cancer mouse model, II-25 and II-27 (Example 76)", "conditions": "30mg/kg once daily; for inhibition of tumour growth: after 5 days of dosing"}, "[8]": {"conditions": "whole-cell patch clamp, HEK293 cells stably transfected, room temperature, read-out: hERG IC50"}}, "note": "pIC50: −log10 of the molar value. Like-named read-outs stand apart in the source and are kept apart here."}
{"smiles": "CC(C)c1ccc(-c2cccc(S(=O)(=O)N3CCCC(c4cccc(OC(C)(C)C(=O)O)c4)C3)c2)cc1", "note": "(stereo not shown) [化合物II-13, 2-(3-(1-((4'-异丙基-[1,1'-联苯基]-3-基)磺酰基)哌啶-3-基)苯氧基)-2-甲基丙酸]", "values": [{"measurement": "pIC50", "setting": "[1]; [8]", "value": "< 5.00"}, {"measurement": "liver microsome metabolic stability", "setting": "[2]; Table 4", "value": "肝微粒体代谢稳定"}, {"measurement": "affinity activity compared with reference compound c", "setting": "[3]", "value": "亲和活性更优"}]}
{"smiles": "CC(C)c1ccc(-c2cccc(S(=O)(=O)N3CCCC(c4cccc(OC(C)(C)C(=O)NS(=O)(=O)c5ccccc5)c4)C3)c2)cc1", "note": "(stereo not shown) [化合物II-28, 2-(3-(1-((4'-异丙基-[1,1'-联苯基]-3-基)磺酰基)哌啶-3-基)苯氧基)-2-甲基-N-(苯磺酰基)丙酰胺]", "values": [{"measurement": "pIC50", "setting": "[1]; [8]", "value": "< 5.00"}, {"measurement": "liver microsome metabolic stability", "setting": "[2]; Table 4", "value": "肝微粒体代谢稳定"}, {"measurement": "affinity activity compared with reference compound c", "setting": "[3]", "value": "亲和活性更优"}]}
{"smiles": "CC(C)c1ccc(-c2cccc(S(=O)(=O)N3CCCC(c4cccc(OC(C)(C)C(=O)NS(=O)(=O)c5ccc(C(F)(F)F)cc5)c4)C3)c2)cc1", "note": "(stereo not shown) [化合物II-39, 2-(3-(1-((4'-异丙基-[1,1'-联苯]-3-基)磺酰基)哌啶-3-基(苯氧基)-2-甲基-N-((4-(三氟甲基)苯基)磺酰)丙酰胺]", "values": [{"measurement": "effect on normal cells", "setting": "[4]", "value": "没有影响"}, {"measurement": "anti-colon-cancer activity", "setting": "[5]", "value": "表现出较好的抗结肠癌活性"}, {"measurement": "pIC50", "setting": "[1]; [8]", "value": "< 5.00"}, {"measurement": "liver microsome metabolic stability", "setting": "[2]; Table 5", "value": "肝微粒体代谢稳定"}, {"measurement": "body weight", "setting": "[6]; II-39 30mg/kg i.p. once daily", "value": "未观察到小鼠体重有明显减轻"}, {"measurement": "tolerability / safety", "setting": "[6]; II-39 30mg/kg i.p. once daily", "value": "动物耐受,安全性良好"}, {"measurement": "tumour inhibition in combination with PD-1 antibody", "setting": "[6]; II-39 30mg/kg i.p. once daily + PD-1 antibody 10mg/kg i.p. twice a week", "value": "肿瘤得到进一步的抑制"}, {"measurement": "inhibition of colon cancer growth", "setting": "[6]; II-39 30mg/kg intraperitoneal once daily", "value": "可以很好的抑制结肠癌的生长"}, {"measurement": "TGI", "setting": "[6]; combination: II-39 30mg/kg i.p. once daily + PD-1 antibody 10mg/kg i.p. twice a week", "value": 81.1, "unit": "%"}, {"measurement": "antiproliferative activity compared with ICG-001", "setting": "CT-26 cells", "value": "显著的优于阳性对照药ICG-001"}]}
{"smiles": "Cc1ccc(-c2cccc(S(=O)(=O)N3CCCC(c4cccc(OC(C)(C)C(=O)NS(=O)(=O)c5ccccc5)c4)C3)c2)cc1C", "note": "(stereo not shown) [化合物II-27, 2-(3-(1-((3',4'-二甲基-[1,1'-联苯基]-3-基)磺酰基)哌啶-3-基)苯氧基)-2-甲基-N-(苯磺酰基))丙酰胺]", "values": [{"measurement": "pIC50", "setting": "[1]; [8]", "value": "< 5.00"}, {"measurement": "liver microsome metabolic stability", "setting": "[2]; Table 4", "value": "肝微粒体代谢稳定"}, {"measurement": "tolerability / safety", "setting": "[7]", "value": "动物耐受,安全性良好"}, {"measurement": "inhibition of tumour growth", "setting": "[7]", "value": "可显著抑制小鼠体内肿瘤的生长"}, {"measurement": "affinity activity compared with reference compound c", "setting": "[3]", "value": "亲和活性更优"}]}
{"smiles": "Cc1ccc(-c2cccc(S(=O)(=O)N3CCCC(c4cccc(OC(C)(C)C(=O)N5CCNCC5)c4)C3)c2)cc1C.Cl", "note": "(stereo not shown) [化合物II-25, 4-(2-(3-(1-((3',4'-二甲基-[1,1'-联苯]-3-基)磺酰基)哌啶-3-基)苯氧基)-2-甲基丙酰基)哌嗪-1-氯化铵]", "values": [{"measurement": "pIC50", "setting": "[1]", "value": "< 5.00"}, {"measurement": "tolerability / safety", "setting": "[7]", "value": "动物耐受,安全性良好"}, {"measurement": "inhibition of tumour growth", "setting": "[7]", "value": "可显著抑制小鼠体内肿瘤的生长"}, {"measurement": "affinity activity compared with reference compound c", "setting": "[3]", "value": "亲和活性更优"}]}
